Test results taken from US11884661B2, “3-substituted propionic acids as αV integrin inhibitors” (BRISTOL-MYERS SQUIBB COMPANY, priority 2016, dated 2024).

Molecular target: T1, human αVβ6 (Homo sapiens, UniProt P06756+P18564)
T1 construct: purchased R & D systems 3817-AV
Test: human αVβ6 HTRF binding assay
Settings: recombinant human αVβ6 integrin, FITC-conjugated fibronectin
Procedure: All binding assays used the HTRF (homogeneous time resolved fluorescence) technology from Cisbio International, therefore all assays are described as HTRF binding assays. The assay results for the Examples are listed above together with the characterization data. The HTRF binding assays are established for the following integrins: human αVβ6, human αVβ1, human αVβ3, human αVβ5, and human αVβ8. All assays used the following assay buffer: 20 mM Tris, pH 7.4, 1 mM MgCl2, 1 mM MnCl2, 0.01% Tween 20, and 0.01% BSA. Alternatively, a SPA-based assay was used for evaluation of receptor binding.
The following describes the components and a representative procedure for the human αVβ6 HTRF binding assay: Recombinant human αVβ6 Integrin (R & D systems, 3817-AV) was biotinylated. Biotinylated human αVβ6 Integrin was added to assay vessel at a final concentration of 1.25 nM. FITC-conjugated fibronectin (Cytoskeleton, FNR02) was then added at the final concentration of 5 nM. The mixture was centrifuged at 600 rpm for three minutes using Thermo Fisher Heraeus Multifuge X3 centrifuge and then incubated at RT for an hour. Streptavidin Terbium (Cisbio international 610STLB) was then added at the final concentration of 0.625 nM. The resulting mixture was centrifuged at 600 rpm for three minutes using Thermo Fisher Heraeus Multifuge X3 centrifuge and then incubated at room temperature overnight in dark before reading HTRF signals.

T1 sequence (P06756 31-992 limits assumed): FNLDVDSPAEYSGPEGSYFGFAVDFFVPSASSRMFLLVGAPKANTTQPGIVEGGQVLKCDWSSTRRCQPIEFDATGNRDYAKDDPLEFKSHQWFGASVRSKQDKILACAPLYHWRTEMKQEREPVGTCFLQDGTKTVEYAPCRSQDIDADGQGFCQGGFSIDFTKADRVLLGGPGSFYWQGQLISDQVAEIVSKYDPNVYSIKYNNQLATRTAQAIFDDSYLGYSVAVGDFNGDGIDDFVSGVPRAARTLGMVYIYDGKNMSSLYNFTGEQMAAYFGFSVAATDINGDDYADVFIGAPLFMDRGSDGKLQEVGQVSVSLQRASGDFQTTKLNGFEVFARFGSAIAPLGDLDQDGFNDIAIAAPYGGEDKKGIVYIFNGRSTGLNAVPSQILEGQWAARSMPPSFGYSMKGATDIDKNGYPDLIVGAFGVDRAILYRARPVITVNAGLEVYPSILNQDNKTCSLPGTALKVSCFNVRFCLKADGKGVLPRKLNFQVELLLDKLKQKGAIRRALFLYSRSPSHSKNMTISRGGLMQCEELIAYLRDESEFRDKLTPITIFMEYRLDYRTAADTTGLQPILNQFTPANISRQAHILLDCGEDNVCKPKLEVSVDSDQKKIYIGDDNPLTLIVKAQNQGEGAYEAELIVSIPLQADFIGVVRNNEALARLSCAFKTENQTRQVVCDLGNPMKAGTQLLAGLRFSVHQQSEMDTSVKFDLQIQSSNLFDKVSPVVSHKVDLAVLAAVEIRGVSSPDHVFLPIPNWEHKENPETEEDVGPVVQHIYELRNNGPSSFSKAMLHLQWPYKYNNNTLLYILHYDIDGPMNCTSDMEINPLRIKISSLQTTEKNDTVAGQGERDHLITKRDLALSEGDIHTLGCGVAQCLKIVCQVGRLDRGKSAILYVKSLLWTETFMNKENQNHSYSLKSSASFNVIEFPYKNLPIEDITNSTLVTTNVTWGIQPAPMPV
T1 sequence (P18564 22-707 limits assumed): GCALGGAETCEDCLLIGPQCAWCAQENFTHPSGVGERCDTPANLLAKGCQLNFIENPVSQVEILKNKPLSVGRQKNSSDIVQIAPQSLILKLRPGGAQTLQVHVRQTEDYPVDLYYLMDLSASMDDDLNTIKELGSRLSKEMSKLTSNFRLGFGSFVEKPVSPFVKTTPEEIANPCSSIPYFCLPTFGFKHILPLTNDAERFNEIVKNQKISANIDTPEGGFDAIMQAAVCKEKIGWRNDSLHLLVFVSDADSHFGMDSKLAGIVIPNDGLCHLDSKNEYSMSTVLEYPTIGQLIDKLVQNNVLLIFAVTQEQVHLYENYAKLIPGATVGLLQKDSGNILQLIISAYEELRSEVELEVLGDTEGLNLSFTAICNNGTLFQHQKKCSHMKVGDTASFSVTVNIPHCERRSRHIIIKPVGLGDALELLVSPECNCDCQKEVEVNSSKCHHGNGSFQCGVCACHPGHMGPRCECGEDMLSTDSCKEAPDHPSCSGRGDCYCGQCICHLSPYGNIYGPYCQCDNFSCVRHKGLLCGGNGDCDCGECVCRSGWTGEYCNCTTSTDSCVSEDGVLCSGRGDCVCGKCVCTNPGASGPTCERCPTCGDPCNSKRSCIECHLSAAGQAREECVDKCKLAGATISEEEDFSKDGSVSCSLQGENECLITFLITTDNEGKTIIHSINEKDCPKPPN

SMILES	IC50 [nM]
CN(C)C(=O)c1cncc(C(CC(=O)O)n2nccc2CCCc2ccc3c(n2)NCCC3)c1 (racemic) [Example 72, (±)-3-[5-(dimethylcarbamoyl)pyridin-3-yl]-3-{5-[3-(5,6,7,8-tetrahydro-1,8-naphthyridin-2-yl)propyl]-1H-pyrazol-1-yl}propanoic acid]	24
COc1cc(C(CC(=O)O)n2nccc2CCCc2ccc3c(n2)NCCC3)ccn1 (racemic) [Example 73, (±)-3-(2-methoxypyridin-4-yl)-3-{5-[3-(5,6,7,8-tetrahydro-1,8-naphthyridin-2-yl)propyl]-1H-pyrazol-1-yl}propanoic acid]	25
CN(C)C(=O)c1cncc(C(CC(=O)O)n2ccc(CCCc3ccc4c(n3)NCCC4)n2)c1 (racemic) [Example 74, (±)-3-[5-(dimethylcarbamoyl)pyridin-3-yl]-3-{3-[3-(5,6,7,8-tetrahydro-1,8-naphthyridin-2-yl)propyl]-1H-pyrazol-1-yl}propanoic acid]	13
O=C(O)CC(c1cc(Cl)cc(Cl)c1)n1nccc1CCCc1ccc2c(n1)NCCC2 (racemic) [Example 75, (±)-3-(3,5-dichlorophenyl)-3-{5-[3-(5,6,7,8-tetrahydro-1,8-naphthyridin-2-yl)propyl]-1H-pyrazol-1-yl}propanoic acid]	28
O=C(O)CCCNc1cc(C(CC(=O)O)n2ccc(CCCc3ccc4c(n3)NCCC4)n2)ccn1 (racemic) [Example 76, (±)-4-{[4-(2-carboxy-1-{3-[3-(5,6,7,8-tetrahydro-1,8-naphthyridin-2-yl)propyl]-1H-pyrazol-1-yl}ethyl)pyridin-2-yl]amino}butanoic acid]	55
COc1ncc(C(CC(=O)O)n2nccc2CCCc2ccc3c(n2)NCCC3)cc1F (racemic) [Example 77, (±)-3-(5-fluoro-6-methoxypyridin-3-yl)-3-{5-[3-(5,6,7,8-tetrahydro-1,8-naphthyridin-2-yl)propyl]-1H-pyrazol-1-yl}propanoic acid]	18
O=C(O)CCCNc1cc(C(CC(=O)O)n2nccc2CCCc2ccc3c(n2)NCCC3)ccn1 (racemic) [Example 79, (±)-4-{[4-(2-carboxy-1-{5-[3-(5,6,7,8-tetrahydro-1,8-naphthyridin-2-yl)propyl]-1H-pyrazol-1-yl}ethyl)pyridin-2-yl]amino}butanoic acid]	300
Cc1ncc(C(CC(=O)O)n2ccc(CCCc3ccc4c(n3)NCCCC4)n2)cn1 (racemic) [Example 96, (±)-3-(2-methylpyrimidin-5-yl)-3-(3-(3-(6,7,8,9-tetrahydro-5H-pyrido[2,3-b]azepin-2-yl)propyl)-1H-pyrazol-1-yl)propanoic acid]	17
Cc1ncc(C(CC(=O)O)n2nccc2CCCc2ccc3c(n2)NCCCC3)cn1 (racemic) [Example 99, (±)-3-(2-methylpyrimidin-5-yl)-3-(5-(3-(6,7,8,9-tetrahydro-5/Z-pyrido[2,3-b]azepin-2-yl)propyl)-1H-pyrazol-1-yl)propanoic acid]	410
COc1ccc(C(CC(=O)O)n2ccc(CCCc3ccc4c(n3)NCCCC4)n2)cn1 (racemic) [Example 100, (±)-3-(6-methoxypyridin-3-yl)-3-(3-(3-(6,7,8,9-tetrahydro-5H-pyrido[2,3-b]azepin-2-yl)propyl)-1H-pyrazol-1-yl)propanoic acid]	6.4
COc1ncc(C(CC(=O)O)n2ccc(CCCc3ccc4c(n3)NCCCC4)n2)cn1 (racemic) [Example 103, (±)-3-(2-methoxypyrimidm-5-yl)-3-(3-(3-(6,7,8,9-tetrahydro-5H-pyrido| 2,3-6 |azepin-2-yl)propyl)-1H-pyrazol-1-yl)propanoic acid]	30
COc1ncc(C(CC(=O)O)n2nccc2CCCc2ccc3c(n2)NCCCC3)cn1 (racemic) [Example 106, (±)-3-(2-methoxypyrimidin-5-yl)-3-(5-(3-(6,7,8,9-tetrahydro-5H-pyrido[2,3-b]azepin-2-yl)propyl)-1H-pyrazol-1-yl)propanoic acid]	820
COc1cncc(C(CC(=O)O)n2ccc(CCCc3ccc4c(n3)NCCCC4)n2)c1 (racemic) [Example 107, (±)-3-(5-methoxypyridin-3-yl)-3-(3-(3-(6,7,8,9-tetrahydro-5H-pyrido[2,3-b]azepin-2-yl)propyl)-1H-pyrazol-1-yl)propanoic acid]	4.9
COc1cncc(C(CC(=O)O)n2nccc2CCCc2ccc3c(n2)NCCCC3)c1 (racemic) [Example 108, (±)-3-(5-methoxypyridin-3-yl)-3-(5-(3-(6,7,8,9-tetrahydro-5H-pyrido[2,3-b]azepin-2-yl)propyl)-1H-pyrazol-1-yl)propanoic acid]	170
COc1ccc(C(CC(=O)O)n2ccc(CCCc3ccc4c(n3)NCCC4)n2)cn1 (single isomer, unassigned) [Example 4, 3-(6-Methoxypyridin-3-yl)-3-(3-(3-(5,6,7,8-tetrahydro-1,8-naphthyridin-2-yl)propyl)-1H-pyrazol-1-yl)propanoic acid]	210
COc1ccc(C(CC(=O)O)c2nc(CCCCc3ccc4c(n3)NCCC4)cs2)cn1 (single isomer, unassigned) [Example 13, 3-(6-Methoxypyridin-3-yl)-3-(4-(4-(5,6,7,8-tetrahydro-1,8-naphthyridin-2-yl)butyl)thiazol-2-yl)propanoic acid]	77
COc1ccc(C(CC(=O)O)c2nc(CCCc3ccc4c(n3)NCCC4)cs2)cn1 (single isomer, unassigned) [Example 16, 3-(6-Methoxypyridin-3-yl)-3-(4-(3-(5,6,7,8-tetrahydro-1,8-naphthyridin-2-yl)propyl)thiazol-2-yl)propanoic acid]	36
COc1ccc(C(CC(=O)O)c2ncc(CCCCc3ccc4c(n3)NCCC4)s2)cn1 (single isomer, unassigned) [Example 17, 3-(6-Methoxypyridin-3-yl)-3-(5-(4-(5,6,7,8-tetrahydro-1,8-naphthyridin-2-yl)butyl)thiazol-2-yl)propanoic acid]	16
COc1ccc(C(CC(=O)O)c2ncc(CCCCc3ccc4c(n3)NCCC4)s2)cn1 (single isomer, unassigned) [Example 18, 3-(6-Methoxypyridin-3-yl)-3-(5-(4-(5,6,7,8-tetrahydro-1,8-naphthyridin-2-yl)butyl)thiazol-2-yl)propanoic acid]	6.7
COc1ccc(C(CC(=O)O)c2ncc(CCCc3ccc4c(n3)NCCC4)s2)cn1 (single isomer, unassigned) [Example 19, 3-(6-Methoxypyridin-3-yl)-3-(5-(3-(5,6,7,8-tetrahydro-1,8-naphthyridin-2-yl)propyl)thiazol-2-yl)propanoic acid]	44
COc1ccc(C(CC(=O)O)c2ncc(CCCc3ccc4c(n3)NCCC4)s2)cn1 (single isomer, unassigned) [Example 20, 3-(6-Methoxypyridin-3-yl)-3-(5-(3-(5,6,7,8-tetrahydro-1,8-naphthyridin-2-yl)propyl)thiazol-2-yl)propanoic acid]	18
COc1ccc(C(CC(=O)O)c2nc(CCCCc3ccc4c(n3)NCCC4)cs2)cc1F (single isomer, unassigned) [Example 36, 3-(3-Fluoro-4-methoxyphenyl)-3-(4-(4-(5,6,7,8-tetrahydro-1,8-naphthyridin-2-yl)butyl)thiazol-2-yl)propanoic acid]	157
COc1ccc(C(CC(=O)O)c2nc(CCCc3ccc4c(n3)NCCC4)cs2)cc1F (single isomer, unassigned) [Example 39, 3-(3-Fluoro-4-methoxyphenyl)-3-(4-(3-(5,6,7,8-tetrahydro-1,8-naphthyridin-2-yl)propyl)thiazol-2-yl)propanoic acid]	23
COc1ccc(C(CC(=O)O)c2ncc(CCCCc3ccc4c(n3)NCCC4)s2)cc1F (single isomer, unassigned) [Example 41, (3-Fluoro-4-methoxyphenyl)-3-(5-(4-(5,6,7,8-tetrahydro-1,8-naphthyridin-2-yl)butyl)thiazol-2-yl)propanoic acid]	5.9
COc1ccc(C(CC(=O)O)c2ncc(CCCc3ccc4c(n3)NCCC4)s2)cc1F (single isomer, unassigned) [Example 42, 3-(3-Fluoro-4-methoxyphenyl)-3-(5-(3-(5,6,7,8-tetrahydro-1,8-naphthyridin-2-yl)propyl)thiazol-2-yl)propanoic acid]	28
COc1ccc(C(CC(=O)O)c2ncc(CCCc3ccc4c(n3)NCCC4)s2)cc1F (single isomer, unassigned) [Example 43, 3-(3-Fluoro-4-methoxyphenyl)-3-(5-(3-(5,6,7,8-tetrahydro-1,8-naphthyridin-2-yl)propyl)thiazol-2-yl)propanoic acid]	18
O=C(O)CC(c1cncc(N2CCOCC2)c1)n1ccc(CCCc2ccc3c(n2)NCCC3)n1 (single isomer, unassigned) [Example 67, 3-[5-(morpholin-4-yl)pyridin-3-yl]-3-{3-[3-(5,6,7,8-tetrahydro-1,8-naphthyridin-2-yl)propyl]-1H-pyrazol-1-yl}propanoic acid]	210
O=C(O)CC(c1cncc(N2CCOCC2)c1)n1ccc(CCCc2ccc3c(n2)NCCC3)n1 (single isomer, unassigned) [Example 68, 3-[5-(morpholin-4-yl)pyridin-3-yl]-3-{3-[3-(5,6,7,8-tetrahydro-1,8-naphthyridin-2-yl)propyl]-1H-pyrazol-1-yl}propanoic acid]	2.8
